Test results reported in patent publication US11497737B2, “Pharmaceutical compositions of albumin and rapamycin” (Abraxis BioScience, LLC, priority 2019, dated 2022).
≈ marks a conversion by molar mass, not a printed value.

Key:
[1] = Rapamycin solubility from light scattering intensity of diluted reconstituted nanoparticle suspension; format: physicochemical; settings: saline or isotonic; in 0.9% saline solution; from light scattering intensity vs rapamycin concentration of reconstituted albumin-rapamycin nanoparticle suspension; read-out: solubility point of rapamycin
Experimental: FIG. 5 depicts light scattering intensity (kcps) as a function of rapamycin concentration from a reconstituted suspension of the pharmaceutical composition comprising nanoparticles comprising rapamycin and albumin. When the suspensions were diluted to concentrations below the rapamycin solubility, the nanoparticles completely disintegrated and dissolved (see left 7-8 data points on graph). However, when the suspensions were diluted to concentrations above the rapamycin solubility, the nanoparticles only partially disintegrated and dissolved, and light scattering was observed (see right 4-5 data points on graph).
The albumin-based rapamycin nanoparticle compositions described herein in some embodiments have a particular in vitro release kinetic behavior. […] In this assay, the particle size and intensity of light scattered by the particles are measured by DLS over time following a reduction in particle concentration. In some embodiments, the release kinetics are determined by diluting the pharmaceutical composition in a 0.9% saline solution. In some embodiments, the release kinetics are determined by diluting the pharmaceutical composition in a 5% human albumin solution.
In some embodiments, the in vitro release is determined using the dynamic light scattering method. […] In some embodiments, the intensity of light scattered is measured at a scattering angle of 173°.

[2] = Solubility of rapamycin in reconstituted suspension by light scattering; format: physicochemical; settings: saline or isotonic; reconstituted suspension of the pharmaceutical composition in 0.9% saline; mean±95% CI
Experimental: The change in intensity of light scattering in diluted samples of the reconstituted suspension of the pharmaceutical composition was used as a measure to determine the in vitro dissolution or disintegration of the nanoparticles, which implicates the release of rapamycin from the nanoparticles of the pharmaceutical composition. The percent of rapamycin released at any given time was determined using the light scattering intensity at zero time and at time t. The intensity of light scattering, measured by the Malvern Zetasizer Nano, is relative to the number of nanoparticles present in the pharmaceutical composition. […] If the release of rapamycin from the nanoparticles is controlled by the solubility limit and the reconstituted suspension is diluted to a concentration within the solubility range, then the nanoparticles should rapidly dissolve, causing the rapamycin to be readily released from the nanoparticles of the pharmaceutical composition, and the light scattering intensity will approach zero.
When the suspensions were diluted to concentrations above the rapamycin solubility, the nanoparticles only partially disintegrated and dissolved, and light scattering was observed. […] The solubility of rapamycin was determined as the concentration at which the intensity of the scattered light begins to increase linearly.

solubility [1]: 16.1 ± 1.8 µg/mL (≈ 17.6 µM) | solubility [2]: 16.1 ± 1.8 µg/mL (≈ 17.6 µM)
Compound: CO[C@H]1C[C@@H]2CC[C@@H](C)[C@@](O)(O2)C(=O)C(=O)N2CCCC[C@H]2C(=O)O[C@H]([C@H](C)C[C@@H]2CC[C@@H](O)[C@H](OC)C2)CC(=O)[C@H](C)/C=C(\C)[C@@H](O)[C@@H](OC)C(=O)[C@H](C)C[C@H](C)/C=C/C=C/C=C/1C [rapamycin]
